For 3 compounds, AFI results are on record in ChEMBL document CHEMBL3046795, “Antifeedant activity of plant extracts and of new natural diglyceride compounds isolated from Ajuga pseudoiva leaves against Spodoptera littoralis larvae” (2001).

Molecules are shown by their SMILES.

Format in all cases: functional
The subject of test [1] is Spodoptera littoralis. Put plainly: Antifeedant activity against Spodoptera littoralis measured at 50 mg/l after 8 to 24 hr by behavioral bioassay.
Test [2] relates to Spodoptera littoralis. Put plainly: Antifeedant activity against Spodoptera littoralis measured at 100 mg/l after 8 to 24 hr by behavioral bioassay.
In test [3] the test system is Spodoptera littoralis. Put plainly: Antifeedant activity against Spodoptera littoralis measured at 1 mg/l after 8 to 24 hr by behavioral bioassay.
For test [4], the system named is Spodoptera littoralis. Put plainly: Antifeedant activity against Spodoptera littoralis measured at 10 mg/l after 8 to 24 hr by behavioral bioassay.

`C=C(C)[C@@H](CC)CC[C@@H](C)[C@H]1CC[C@H]2[C@@H]3CC=C4C[C@@H](OC(=O)CCC)CC[C@]4(C)[C@H]3CC[C@]12C` [MIGHAVIDE]: the AFI in test [1] is listed as -0.5%; in test [2], 10.3%.

With `C=C(C)[C@@H](CC)CC[C@@H](C)[C@H]1CC[C@H]2[C@@H]3CC=C4C[C@@H](O)CC[C@]4(C)[C@H]3CC[C@]12C` [CLEROSTEROL], the AFI in test [1] is -15.3%; in test [2] it was 3.3%.

On to `CCCCCCCCCCCCCC(O)CC(=O)OC` (stereo not drawn) [3-HYDROXYHEXADECANOIC ACID METHYL ESTER], for which the AFI in test [1] is 32%; in test [2], 45%; in test [3] it was -3.5%; in test [4], 9.1%.
